{"source": "patent US20230382904A1", "about": "“SUBSTITUTED 4-([1,2,4]TRIAZOLO[1,5-a]PYRIDIN-6-YL)THIOPHENE-2-CARBOXAMIDE DERIVATIVES AND USE THEREOF” (The Johns Hopkins University, priority 2020, published 2023)", "key": {"[1]": {"experiment": "In vitro PhysChem properties", "assay_type": "physicochemical"}, "[2]": {"tested_on": "primary murine retinal ganglion cells", "experiment": "Retinal ganglion cell (RGC) viability assay", "assay_type": "cell-based", "details": "among compounds 4, 19, 94 and 112", "protocol": "The RGC assay detected the viability of primary murine retinal ganglion cells via Cell Titer Glo (Promega), using a previously described assay (Proc. Natl. Acad. Sci. USA. 2013, 110(10), 4045-50), which is incorporated herein by reference in its entirety.\nRGCs were freshly isolated from approximately P2 murine retinas by immunopanning using mouse anti-CD90 coated plates. Cells are seeded into poly-D-lysine or laminin coated plates in Neurobasal medium supplemented by 1% Pen/Strep (Gibco 15140-122), 0.01 mg/ml insulin, 1 mM sodium pyruvate, 1% of 100× Sato (400 mg transferrin, 400 mg BSA, 0.25 mg progesterone, 64 mg putrescine, 160 μg sodium selenite in 40 mL Neurobasal medium), 0.04 μg/ml triiodo-thyronine, 2 mM L-glutamine, 0.05 mg/ml N-acetyl cysteine, 10 μM forskolin, 2% 50× B27 (Gibco 17504-044).\nFor the assay 500-2000 cells per well in a volume of 40 μl were used (384 MTP format). After 72 hours 20 μl Cell Titer Glo reagent was added and viability is measured via luminescent quantitation of ATP. The amount of ATP was directly proportional to the number of cells present in culture."}, "[3]": {"experiment": "Ischemia/Reperfusion (I/R) rat model, optokinetic tracking", "assay_type": "in vivo", "details": "prophylactic setting, after a 20 minute ischemic event", "protocol": "The animals were placed under anesthesia (Rompun (Xylazin als Xylazinhydrochlorid) 2%, Bayer, PZN-1320422, Ketavet (Ketaminhydrochlorid) 100 mg/mL, Pfizer, PZN-3151811) and the pupil on the right eye dilated (Neosynephrin-POS 5% Augentropfen, […], PZN 0828584).\nWhen anesthetized, local anesthetic eye drops (Alcaine, lokalanästhetische Augentropfen, Alcon, 37516058) were applied to the right eye. The rat is on the left side. After a short exposure time, a 30G cannula was inserted laterally into the anterior chamber of the eye. To do this, the eye was fixed with a cotton swab so that it emerged from the eye socket. Once the cannula was placed, the eye was carefully released. The 30G cannula was connected via infusion set to a bag of isotonic infusion solution. The infusion bag hung in a pressure cuff. The pressure was regulated via the pressure cuff and the manometer. For the model, the intraocular pressure is increased to 120 mm Hg. The duration is 20 min. If the cannula fits correctly, the eye turns white, because the blood circulation was interrupted. During treatment, the rats lied on a warm mat (level 2). It was necessary to observe the anesthetic state of the animal. […]\nFor the optomotry readout only the spatial resolution is measured (spatial frequency). Both eyes were measured. […]"}}}
{"smiles": "CC[C@H](NC(=O)c1cc(-c2cc(C(=O)N[C@@H](C)CC)c3nc(N)nn3c2)cs1)c1ccc(F)cc1", "note": "[Compound 112, 2-Amino-N-[(2S)-butan-2-yl]-6-(5-{[(1S)-1-(4-fluorophenyl)propyl]carbamoyl}thiophen-3-yl)[1,2,4]triazolo[1,5-a]pyridine-8-carboxamide]", "values": [{"measurement": "chemical stability", "setting": "[1]", "value": "chemically stable"}, {"measurement": "activity in RGC assay", "setting": "[2]", "value": "most active"}, {"measurement": "retained vision", "setting": "[3]", "value": "~80", "unit": "%"}]}
